From US9918968B2, “Rapamycin analogs targeting proteasome function in the treatment of cancer” (THE BOARD OF REGENTS OF THE UNIVERSITY OF TEXAS SYSTEM, priority 2013, dated 2018)

Experiments:
[1] = system: T1, 20S core with 19S, 11S, tRpt5 or tPA200; experiment: Activation of 20S core ChT-L activity by α face ligands (19S, 11S, tRpt5, tPA200); assay type: biochemical, human
T1 construct: purchased Enzo LifeSciences (20S, 11S); Boston Biochemicals (19S complex)
Experimental: (§1) Human purified proteasome complexes were purchased from Enzo LifeSciences or Boston Biochemicals (19S complex). BODIPY-casein (Invitrogen/Molecular Probes) was used as a model protein substrate, with increasing fluorescence of BODIPY labeled peptide products of degradation monitored for up to 8 hours at 37° C. The peptidase activity of the enzyme was measured as arbitrary intensity units of the released fluorescent group 7-amino-4-methylcoumarin (AMC) from peptide substrates, as described. The common substrates specific for the three kinds of active sites: succinyl-LeuLeuValTyr-7-amido-4-methylcoumarin (Suc-LLVY-MCA; for the ChT-L activity; Bachem), butoxycarbonyl-LeuArgArg-MCA (BocLRR-MCA; for T-L; Bachem) and carbobenzoxy-LeuLeuGlu-MCA (CbzLLE-MCA; for PGPH; Enzo Life Sciences International, Inc.) were used at 100 μM final concentrations, unless stated otherwise (Gaczynska and Osmulski, 2005). Proteasome substrates, rapamycin, its derivatives, and competing peptides were stocked in DMSO and diluted 100-fold in the reaction mixtures. The Rpt5 and PA200 C-terminal peptides were synthesized in the Departmental Peptide Synthesis Core using the standard SPPS chemistry. To activate the latent 20S proteasome, 0.005% (final concentration) of sodium dodecyl sulfate (SDS) was used. The reactions were carried out in 96 well plates, with 2.3 nM proteasome and other components as indicated dissolved in 50 mM Tris-HCl buffer (pH 8.0) and incubated at 37° C. for up to 1 hour. The fluorescence of products was monitored every 2 minutes with a Fluoroskan Ascent plate reader. Reaction rates were calculated from smoothed linear segment of kinetic curves using OriginPro 8.6 (OriginLabs, Northampton, Mass.). For the determination of an inhibition type, at least six distinct substrate concentrations and two inhibitor concentrations were used. The kinetic parameters of inhibition were analyzed in terms of the Michaelis-Menten formalism using the enzyme kinetic module of SigmaPlot v.12 (Systat Software, Inc, San Jose, Calif.) to perform the respective calculations.
De novo assembly of 19S from subunits is a complex process assisted by chaperones. In vitro, and likely also in cells, the 26S can also be reconstructed from 20S and the already-assembled 19S particle in the presence of ATP (Smith et al., 2005). Enhancement of the peptidase activities of the core proteasome is an established test for efficiency of the in vitro reconstruction. […] In contrast, a pretreatment of 20S with 5 μM rapamycin before adding ATP and 19S totally abrogated the activation, leaving the proteasome almost 40% inhibited instead (FIG. 6).

20S proteasome α face = system: T2, 20S proteasome α face; experiment: AFM imaging of open/closed conformers of 20S proteasome α face; design: species or system human; conditions: 10 μM compound
T2 construct: purchased Enzo LifeSciences
Experimental: AFM imaging of the 20S proteasomes were performed as previously described, in tapping (oscillating) mode in liquid (Osmulski et al., 2009 and Gaczynska and Osmulski, 2011). In short, 3 μL of proteasome preparations diluted to nanomolar concentration were deposited on a freshly cleaved muscovite mica surface. After 2 min incubation allowing electrostatic attachment of the protein particles to mica the droplet was overlaid with 30 microL of 50 mM Tris-HCl buffer (pH 7.0) and mounted in the wet chamber of a MultiMode NanoScope Ma (Bruker Corp.). Oxide-sharpened silicon nitride tips on cantilevers with a nominal spring constant 0.32 N/m (Bruker Corp.) were used to image 1 μm^2 fields in the height mode, with a scan rate of 3.05 Hz. The excitation frequency was manually tuned to 9-10 kHz, with a drive voltage of 200-500 mV and a relatively high set point (1.6 V to 1.9 V) to assure tapping with low, non-destructive force. […] As the inventors established previously, such resolution was sufficient to detect distinct conformations of the α face, covered by six scan lines. Multiple fields were scanned for each sample to collect images of hundreds of particles. Selected fields were repeatedly scanned to monitor changes in topography of the same particles for prolonged time. Inhibitors and the SucLLVY-MCA substrate were diluted in 10 μL of the imaging buffer and directly injected into the chamber. Raw images are presented, with a standard plain-fit and flattening (NanoScope software v.5.12) used as the only processing tools. For display purposes the brightness and contrast of the images was adjusted with the Nanoscope software or with Adobe Photoshop (Adobe Systems Inc.), and outlier scan lines were occasionally manually removed (Nanoscope software). Top view (“standing”, rounded) proteasomes were distinguished from the minor population of side-view (“lying”, rectangular) particles as described, by comparison of their length—to width ratios (Osmulski et al., 2009). The dimensions of particles were approximated and a shape of the α face in top-view proteasomes was judged with the help of a section tool in the Nanoscope v.5.12 or SPIP v.6.02 software (Image Metrology).
For this purpose, the inventors used the noninvasive tapping mode atomic force microscopy (AFM) in liquid, the imaging technique suitable for analysis of surface topography of macromolecules in their native state with a nanometer-scale practical resolution. The inventors established before that AFM imaging is a useful tool for studying structural dynamics of the 20S α face (Osmulski et al., 2009, Gaczynska et al., 2003; Gaczynska et al., 2011). They acquired and analyzed images of hundreds of single native, fully active 20S molecules. The majority of particles were in top-view (“standing”) position conveniently allowing for imaging of their α faces. […] Following previous extensive studies, the inventors refer to the two forms as “closed-gate” and “open-gate” proteasomes, respectively (Osmulski et al., 2009). As described before, the inventors used the shape of sections carried out in four directions through the top portion of the surface topography of the α ring to distinguish between the two forms. In short, the particle was classified as closed if all four sections were cone-shaped. In contrast, the particle was classified as open if all sections presented a dip surrounded by a rim (FIG. 5A) (Osmulski, et al., 2009). The same particles imaged in consecutive scans were able to assume either closed or open conformations, however the cone-shaped particles were always more abundant than crater-shaped, and accounted for about three-quarters of the imaged molecules (FIG. 5B). Addition of rapamycin to the imaged particles remarkably changed the partition of forms. […]

[2] = biological target: T3, human 20S proteasome, T-L peptidase; experiment: T-L peptidase activity of purified human 20S proteasome (BocLRR-MCA); assay type: biochemical; conditions: for Kd: activation of T-L peptidase; for Bmax [%]: T-L: maximal activation effect, % above the control activity
T3 construct: purchased Enzo LifeSciences
Experimental: as §1
(§2) IC50 values (a drug concentration causing 50% inhibition of the indicated enzymatic activity) were calculated for ChT-L and PGPH peptidases. Kd (dissociation constant) and Bmax (maximal activation effect achieved; in % above the control activity) values were calculated for the T-L peptidase. Mean±SD from n=2 or 3 experiments, or data from representative experiments set in duplicates or triplicates, are presented in the table. All three peptidase activities changed by no more than ±20%, without a concentration-dependent trend, upon treatment with up to 10 μM of rapamycin unrelated mTOR inhibitors PI-103 or NVP-BEZ235, in two independent experiments.

[3] = system: T4, human 20S proteasome, ChT-L peptidase; experiment: ChT-L peptidase activity of purified human 20S proteasome (Suc-LLVY-MCA); assay type: biochemical; conditions: for IC50: latent human 20S proteasome
T4 construct: purchased Enzo LifeSciences
Experimental: as §1, with “The common substrates specific for the three kinds of active sites: succinyl-LeuLeuValTyr-7-amido-4-methylcoumarin (Suc-LLVY-MCA; for the ChT-L activity; Bachem), butoxycarbonyl-LeuArgArg-MCA (BocLRR-MCA; for T-L; Bachem) and carbobenzoxy-LeuLeuGlu-MCA (CbzLLE-MCA; for PGPH; Enzo Life Sciences International, Inc.) were used at 100 μM final concentrations, unless stated otherwise (Gaczynska and Osmulski, 2005).” left out, “The reactions were carried out in 96 well plates, with 2.3 nM proteasome and other components as indicated dissolved in 50 mM Tris-HCl buffer (pH 8.0) and incubated at 37° C. for up to 1 hour.” left out, “calculations. […]” for “calculations.”
The in vitro assay for testing the ChT-L peptidase activity of the purified human 20S proteasome was performed as described above.

[4] = biological target: T5, human 20S proteasome, PGPH peptidase; experiment: PGPH peptidase activity of purified human 20S proteasome (CbzLLE-MCA); assay type: biochemical; conditions: for IC50: latent human 20S proteasome
T5 construct: purchased Enzo LifeSciences
Experimental: as §1, §2

Kd [2] [µM]	Bmax [%]: T-L [2] [%]	IC50 [3] [µM]	IC50 [4] [µM]	Compound	also measured
–	–	–	–	Oc1cccc(-c2nc(N3CCOCC3)c3oc4ncccc4c3n2)c1 [PI-103]	effect on activation of 20S with 19S ([1]; 5 μM): no detectable effects; closed conformers (20S proteasome α face): 74%±4%; closed conformers after substrate (20S proteasome α face; then SucLLVY-MCA 100 μM): 29%±5%
1.82	483	> 20	0.57 ± 0.12	CC[C@@H]1/C=C(\C)C[C@H](C)C[C@H](OC)[C@H]2O[C@@](O)(C(=O)C(=O)N3CCCC[C@H]3C(=O)O[C@H](/C(C)=C/[C@@H]3CC[C@H](Cl)[C@H](OC)C3)[C@H](C)[C@@H](O)CC1=O)[C@H](C)C[C@@H]2OC [pimecrolimus]	remaining ChT-L activity ([3]; 5 μM pimecrolimus alone): 82%; closed conformers (20S proteasome α face): ~40%; open conformers (20S proteasome α face): about 60%; IC50 for PGPH increase as compared with rapamycin ([4]; relative to rapamycin): 40%
1.14	257	> 20	0.93 ± 0.04	C=CC[C@@H]1/C=C(\C)C[C@H](C)C[C@H](OC)[C@H]2O[C@@](O)(C(=O)C(=O)N3CCCC[C@H]3C(=O)O[C@H](/C(C)=C/[C@@H]3CC[C@@H](O)[C@H](OC)C3)[C@H](C)[C@@H](O)CC1=O)[C@H](C)C[C@@H]2OC [FK-506]	lowering of activation by tRpt5 ([1]; 10 μM derivative, 10 μM tRpt5): about 30%; inhibition of proteasome with or without tPA200 ([1]; 10 μM derivative, presence or absence of 10 μM tPA200): about 40%
0.14	83	1.9 ± 0.2	0.41 ± 0.03	CO[C@H]1C[C@@H]2CC[C@@H](C)[C@@](O)(O2)C(=O)C(=O)N2CCCC[C@H]2C(=O)O[C@H]([C@H](C)C[C@@H]2CC[C@@H](O)[C@H](OC)C2)CC(=O)[C@H](C)/C=C(\C)[C@@H](O)[C@@H](OC)C(=O)[C@H](C)C[C@H](C)/C=C/C=C/C=C/1C [rapamycin]	inhibition of ChT-L activity, 20S pretreated before ATP and 19S ([1]; 5 μM, 19S 1:1): ~40%; inhibition of proteasome in presence of tPA200 ([1]; 10 μM compound, 10 μM tPA200): 50%; remaining ChT-L activity ([3]; 2 μM rapamycin alone): 70%; ChT-L peptidase activity ([3]; 2 μM, % of DMSO control, representative experiment): 52%; ChT-L peptidase activity after 10-fold dilution ([3]; after incubation with 2 μM, 10-fold dilution): 99%; Ki ([3]; mixed inhibition model): 490 nM; PGPH peptidase activity ([4]; 0.2 μM, % of control): 48%; PGPH peptidase activity after 10-fold dilution ([4]; after incubation with 0.2 μM, 10-fold dilution): 96%; Ki ([4]; noncompetitive inhibition): 250 nM
0.19	81	2.1 ± 0.2	0.36 ± 0.03	CO[C@H]1C[C@@H]2CC[C@@H](C)[C@@](O)(O2)C(=O)C(=O)N2CCCC[C@H]2C(=O)O[C@H]([C@H](C)C[C@@H]2CC[C@@H](OC(=O)C(C)(CO)CO)[C@H](OC)C2)CC(=O)[C@H](C)/C=C(\C)[C@@H](O)[C@@H](OC)C(=O)[C@H](C)C[C@H](C)/C=C/C=C/C=C/1C [temsirolimus]	IC50 for ChT-L lower than rapamycin ([3]; relative to rapamycin): ~40%; IC50 for PGPH lower than rapamycin ([4]; relative to rapamycin): 20%
0.11	114	2.9 ± 0.5	0.43 ± 0.11	CO[C@H]1C[C@@H]2CC[C@@H](C)[C@@](O)(O2)C(=O)C(=O)N2CCCC[C@H]2C(=O)O[C@H]([C@H](C)C[C@@H]2CC[C@@H](OP(C)(C)=O)[C@H](OC)C2)CC(=O)[C@H](C)/C=C(\C)[C@@H](O)[C@@H](OC)C(=O)[C@H](C)C[C@H](C)/C=C/C=C/C=C/1C [ridaforolimus]	–
0.07	93	2.5 ± 0.7	0.48 ± 0.11	CO[C@H]1C[C@@H]2CC[C@@H](C)[C@@](O)(O2)C(=O)C(=O)N2CCCC[C@H]2C(=O)O[C@H]([C@H](C)C[C@@H]2CC[C@@H](OCCO)[C@H](OC)C2)CC(=O)[C@H](C)/C=C(\C)[C@@H](O)[C@@H](OC)C(=O)[C@H](C)C[C@H](C)/C=C/C=C/C=C/1C [everolimus]	–
–	–	–	–	11S: 11S proteasome activator complex PA28/REG	increase of ChT-L activity by protein complex ([1]; 1:1 molar ratio with 20S): 8 fold
